Test results: patent US20210186972A1, “FORMULATIONS AND METHODS FOR THE PREVENTION AND TREATMENT OF TUMOR METASTASIS AND TUMORIGENESIS” (THE UNITED STATES OF AMERICA, AS REPRESENTED BY THE …, priority 2018, published 2021)

Legend:
[1] = tested on: human cancer cell lines; assay: PNC prevalence in a range of cancer cell lines; format: cell-based; settings: 1 μM, 24 hours, different human cancer cell lines
Method: FIG. 2 is a bar graph showing that 1 μM metarrestin was effective at reducing PNCs in a range of cancer cell lines (p<0.05 for PNC reduction in all cell lines; the list of cells is in Table 1 below, see also Example 2 below). The DMSO control is shown in light grey bars and metarrestin in dark grey bars. PNC prevalence (%) is on the y-axis and the cell line names are along the x-axis.
In summary, several cell types (see list below in Table 1) were treated with 1 μM (IC100 for PC3M cells) of metarrestin for 24 hours. Specifically, PC-3M cells were maintained in RPMI 1640 medium. Other cell lines including HeLa, Panel, PACADD159, PACADD183, PA-TU-8988T, KP-3, PK-8, NOR-P1, L3.6sl, Colo357, Suit-2, HP AC were maintained in DMEM with 10% FBS (GEMINI™ Bio Products) and 100 units/mL of penicillin and streptomycin. Cells were generally plated approximately 24 h before treatment with metarrestin for 5 h or 24 h at 1 μM.

[2] = tested on: NSG PANC1 mice; assay: Orthotopic pancreatic cancer metastasis model, daily IP treatment; format: in vivo
Method: Because pancreatic cancer patients suffer particular high mortality from metastasis, the in vivo efficacy of metarrestin against metastasis in an orthotopic pancreatic cancer metastasis model was evaluated. The 3D PANC1 cell spheres model, deployed in NOD/interleukin 2 receptor common gamma chain (Il2rγ)^null (NSG) PANC-1 mice (see Suemizu et al., “Identification of a key molecular regulator of liver metastasis in human pancreatic carcinoma using a novel quantitative model of metastasis in NOD/SCID/gammacnull (NOG) mice.” Int. J. Oncol., (31): 741-51 (2007), incorporated herein in its entirety), recapitulates human cancer progression and metastatic phenotype of the disease without the limitations of early death due to complications of local invasion, such as gastric outlet obstruction or impingement of the common bile duct. Sixty thousand 3D luciferase-expressing PANC1-luc cell spheres were injected orthotopically into the pancreas of NSG mice. […] By 8 weeks, macrometastasis on the liver surface were visible.
Four weeks after inoculation, mice were treated once daily with metarrestin (5 mg/kg or 25 mg/kg) or vehicle via IP injections, continuing for six weeks. […] The treatment was well-tolerated, and animals maintained their body weight (FIG. 11).
To determine whether PNCs in treated animals were impacted by metarrestin, PNC prevalence in primary tumors and metastatic lesions from control and metarrestin-treated animals (25 mg/kg) were examined 12 weeks after tumor inoculation. […] PNC prevalence in non-treated animals was higher in these groups of tumors and metastatic lesions than in those harvested at an earlier time (FIG. 6) or in cultured PANC1 cells (FIG. 2), consistent with previous findings that late-stage cancers have higher PNC prevalence.
Pancreatic cancer model: 60,000 luciferase-tagged PANC1 spheres were injected into the pancreas of Nod/IL2gamma (null) mice (obtained from NCI Mouse Repository, Frederick, Md.; on ACUC-approved animal protocol SB-211-2). At 4 weeks after inoculation, mice were treated once daily with metarrestin (5 mg/kg or 25 mg/kg) or vehicle via IP injections, which extended out for 6 more weeks. Mice were injected with luciferin 5 minutes before being sacrificed by CO2 euthanasia. Organs were then individually dissected, subjected to quantitative xenogene imaging, and fixed with 4% non-buffered formaldehyde. Impact of metastatic burden was calculated and graphed as liver and lung/primary tumor ratios based on a five-minute photon count for the liver normalized to liver weight (g), which was then compared to the average photon count per weight (g) of the primary pancreatic tumor of the same animal. This calculation corrects for variations in luciferin injection, mouse heart rate, and perfusion. For overexpression of eEF1A2, 6*10^4 PANC1 3D spheres transduced with eEF1A2 (eEF1A2 OE) were injected into the tail of the pancreas of NSG mice. Mice of both groups were harvested at 6 weeks after implantation and subjected to necropsy. Liver metastasis/mm^2 was calculated as the sum of the […] of the individual metastases. Tumor volume (mm^3) was calculated as (L×W2), where L=length (mm) and W=width (mm). Animal survival was measured from the first day of treatment until death. […]

[3] = tested on: RPA194 and UBF; assay: Western blot of RPA194 and UBF; format: cell-based; settings: 1 μM, 24 hours, PANC1, PC3M, and HeLa
Method: Western blots were performed according to the manufacturer's protocols (Li-COR). Transfer membrane was from Millipore (cat. no. IPFL00010). The primary antibodies used were phospho-γ H2AX (Upstate 07-164, rabbit, 1:1000); p53 (Santa Cruz Biotechnology sc-6243 rabbit 1:500); UBF (F-9) (Santa Cruz Biotechnology, mouse, 1:500); RPA194 (Santa Cruz Biotechnology, sc-48385, mouse, 1:500); p53BP1 (Novus, NB100-304, rabbit 1:10,000); EF1a (Millipore 05-235, mouse, 1:1000), HA-Tag (C29F4, Cell Signaling, rabbit 1:1000) and actin (Sigma A5060, rabbit, 1:3000, A4700, mouse, 1:1000) as a loading control. LI-COR IRDye secondary antibodies (1:10,000), goat anti-mouse-680RD (926-68070), goat anti-mouse-800CW (926-32210), goat-anti-rabbit-680RD (926-68071), goat-anti-rabbit-800CW (926-32211) were used for visualization. Protein bands were detected using LI-COR Odyssey Image Studio (LI-COR Biosciences).
Psoralen crosslinks active accessible DNA under UV light without displacing nucleosomes or transcription factors, or changing chromatin states. Psoralen-crosslinked DNA moves slower on agarose gel and can be distinguished from the non-crosslinked DNA by Southern blots. […] To examine the interactions between Pol I transcription factors and rDNA, quantitative ChIP experiments were carried out using primer sets across promoter and coding regions of rDNA (FIG. 29-30E).

[4] = tested on: PANC1, PC3M, and HeLa; assay: DNA damage response, cell cycle and apoptosis; format: cell-based
Method: Genotoxic agents that intercalate into or alkylate DNA, such as actinomycin D, induce similar nucleolar segregation to that observed with metarrestin treatment. To determine whether metarrestin induces nucleolar changes through genotoxic effects or general cytotoxicity, the impact of metarrestin on DNA damage repair, cell cycle, and general Pol II transcription status in three cell lines, PANC1, PC3M, and HeLa, was evaluated. […]

[5] = 5 or 25 mg/kg IP once daily for six weeks

N=c1c2c(-c3ccccc3)c(-c3ccccc3)n(Cc3ccccc3)c2ncn1[C@H]1CC[C@H](O)CC1 [metarrestin]
PNC prevalence [1]: reduced PNC prevalence
Metastatic burden in liver ([2]; 25 mg/kg IP once daily for six weeks, vs vehicle, p<0.01): decrease in metastatic burden
Metastatic burden in lung ([2]; 25 mg/kg IP once daily for six weeks, vs vehicle, p<0.05): decrease in metastatic burden
PNC prevalence in metastatic and primary tumor tissues ([2]; 25 mg/kg, 12 weeks after tumor inoculation, p<0.01): significant reduction of PNC prevalence
Primary tumor weight [2, 5]: not significantly changed
Tolerability, body weight [2, 5]: well-tolerated
Amounts of Pol I large subunit RPA194 and UBF [3]: did not change significantly
Apoptotic index, cells undergoing apoptosis [4]: less than 1%
DNA damage response signature factors ([4]; 1 μM, 24 hours): neither phosphorylated yH2AX or p53BP1, nor phosphorylated p53
Cell cycle pattern (DNA content, flow cytometry) ([4]; two different concentrations within 24 hours): did not show a significant alteration of cell cycle pattern
